# How the values were obtained:
# [1] = target: T1, Phosphatidylinositol 4,5-bisphosphate 3-kinase catalytic subunit delta isoform (Homo sapiens, UniProt O00329); test: Inhibition of recombinant human PI3Kdelta using PIP2 as substrate after 35 to 40 mins by HTRF assay
# T1 sequence (O00329 whole entry): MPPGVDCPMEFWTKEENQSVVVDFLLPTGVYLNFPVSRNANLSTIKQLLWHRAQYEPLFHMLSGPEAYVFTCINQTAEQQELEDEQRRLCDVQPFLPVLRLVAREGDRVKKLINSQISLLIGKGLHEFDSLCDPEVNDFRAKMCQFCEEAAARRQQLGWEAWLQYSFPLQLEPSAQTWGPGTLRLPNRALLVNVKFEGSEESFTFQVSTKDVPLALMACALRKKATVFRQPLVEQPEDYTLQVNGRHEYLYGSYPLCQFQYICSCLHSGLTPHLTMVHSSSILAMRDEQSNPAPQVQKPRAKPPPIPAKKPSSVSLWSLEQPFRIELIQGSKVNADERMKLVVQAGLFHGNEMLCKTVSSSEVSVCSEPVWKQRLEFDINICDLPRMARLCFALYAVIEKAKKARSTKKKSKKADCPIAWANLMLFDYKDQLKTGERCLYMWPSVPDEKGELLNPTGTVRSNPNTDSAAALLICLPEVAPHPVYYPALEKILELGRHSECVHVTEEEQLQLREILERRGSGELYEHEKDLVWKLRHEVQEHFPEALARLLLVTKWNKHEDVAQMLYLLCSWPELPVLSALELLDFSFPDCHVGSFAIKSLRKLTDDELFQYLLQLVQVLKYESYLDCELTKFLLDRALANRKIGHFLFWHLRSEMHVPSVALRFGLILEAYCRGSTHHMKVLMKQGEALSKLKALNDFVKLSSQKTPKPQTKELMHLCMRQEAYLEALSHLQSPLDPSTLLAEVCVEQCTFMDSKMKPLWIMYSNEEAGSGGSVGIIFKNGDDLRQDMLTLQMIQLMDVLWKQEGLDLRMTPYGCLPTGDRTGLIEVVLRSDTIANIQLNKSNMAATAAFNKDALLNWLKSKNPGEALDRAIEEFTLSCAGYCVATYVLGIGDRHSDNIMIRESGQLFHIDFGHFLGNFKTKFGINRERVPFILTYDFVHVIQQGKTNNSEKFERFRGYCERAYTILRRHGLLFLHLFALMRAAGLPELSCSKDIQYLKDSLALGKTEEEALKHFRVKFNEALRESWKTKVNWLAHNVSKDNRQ
# [2] = target: Phosphatidylinositol 4,5-bisphosphate 3-kinase catalytic subunit alpha isoform (Homo sapiens, UniProt P42336); test: Inhibition of human PI3Kalpha using phosphatidyl inositol as substrate after 3 hrs by Kinase-Glo Plus reagent-based luminescence assay
# [3] = target: Phosphatidylinositol 4,5-bisphosphate 3-kinase catalytic subunit beta isoform (Homo sapiens, UniProt P42338); test: Inhibition of recombinant human PI3Kbeta using PIP2 as substrate after 35 to 40 mins by HTRF assay
# [4] = target: Phosphatidylinositol 4,5-bisphosphate 3-kinase catalytic subunit gamma isoform (Homo sapiens, UniProt P48736); test: Inhibition of recombinant human PI3Kgamma using PIP2 as substrate after 35 to 40 mins by HTRF assay
# [5] = tested on: B-cell; test: Antiproliferative activity against anti-IgM antibody-stimulated BALB/c mouse B cells after 2 days by Alamar Blue reagent-based assay; conditions: 48 h
# [6] = Inhibition of PI3K in rat Rat-1 cells assessed as decrease in AKT 1/2 phosphorylation at ser473 residues after 1 hr by AlphaScreen assay; assay type: cell-based
# [7] = Half life in BALB/c mouse at 1 mg/kg, iv or 3 mg/kg, po by LC-MS/MS analysis; assay type: ADME, organism-based; conditions: in vivo
# [8] = Intrinsic clearance in CD1 mouse liver microsomes at 0.2 uM up to 45 mins in presence of NADPH by LC-MS/MS analysis; assay type: ADME, Microsome; conditions: read-out: CLH
# Chain of Phosphatidylinositol 4,5-bisphosphate 3-kinase catalytic subunit alpha isoform (P42336 whole entry, canonical isoform): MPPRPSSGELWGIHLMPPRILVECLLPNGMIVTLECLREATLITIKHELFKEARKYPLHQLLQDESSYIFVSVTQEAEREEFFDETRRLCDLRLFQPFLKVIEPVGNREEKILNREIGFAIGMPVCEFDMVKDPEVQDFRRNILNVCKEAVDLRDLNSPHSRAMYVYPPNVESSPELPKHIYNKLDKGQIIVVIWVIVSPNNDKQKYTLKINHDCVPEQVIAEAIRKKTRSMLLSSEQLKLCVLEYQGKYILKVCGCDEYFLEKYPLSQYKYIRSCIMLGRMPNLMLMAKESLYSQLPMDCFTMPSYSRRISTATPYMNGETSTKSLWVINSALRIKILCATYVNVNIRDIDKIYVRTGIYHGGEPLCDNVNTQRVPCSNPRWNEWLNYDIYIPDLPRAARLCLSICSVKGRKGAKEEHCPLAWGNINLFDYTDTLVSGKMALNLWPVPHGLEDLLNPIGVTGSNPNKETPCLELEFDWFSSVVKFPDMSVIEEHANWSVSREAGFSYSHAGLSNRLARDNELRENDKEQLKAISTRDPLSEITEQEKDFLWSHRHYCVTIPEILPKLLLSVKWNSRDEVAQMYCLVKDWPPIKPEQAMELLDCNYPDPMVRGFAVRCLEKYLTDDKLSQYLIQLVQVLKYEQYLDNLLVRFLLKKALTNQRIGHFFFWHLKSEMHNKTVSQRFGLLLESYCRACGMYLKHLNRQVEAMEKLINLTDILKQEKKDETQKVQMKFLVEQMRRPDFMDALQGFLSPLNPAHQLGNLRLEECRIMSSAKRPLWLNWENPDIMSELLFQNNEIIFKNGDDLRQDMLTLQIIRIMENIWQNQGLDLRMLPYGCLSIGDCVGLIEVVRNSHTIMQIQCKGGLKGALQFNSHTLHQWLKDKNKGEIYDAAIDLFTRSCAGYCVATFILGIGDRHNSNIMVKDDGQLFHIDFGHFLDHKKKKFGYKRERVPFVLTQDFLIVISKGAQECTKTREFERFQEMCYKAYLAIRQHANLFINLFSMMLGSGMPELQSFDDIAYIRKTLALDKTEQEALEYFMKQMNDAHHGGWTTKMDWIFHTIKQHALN
# Chain of Phosphatidylinositol 4,5-bisphosphate 3-kinase catalytic subunit gamma isoform (P48736 whole entry, canonical isoform): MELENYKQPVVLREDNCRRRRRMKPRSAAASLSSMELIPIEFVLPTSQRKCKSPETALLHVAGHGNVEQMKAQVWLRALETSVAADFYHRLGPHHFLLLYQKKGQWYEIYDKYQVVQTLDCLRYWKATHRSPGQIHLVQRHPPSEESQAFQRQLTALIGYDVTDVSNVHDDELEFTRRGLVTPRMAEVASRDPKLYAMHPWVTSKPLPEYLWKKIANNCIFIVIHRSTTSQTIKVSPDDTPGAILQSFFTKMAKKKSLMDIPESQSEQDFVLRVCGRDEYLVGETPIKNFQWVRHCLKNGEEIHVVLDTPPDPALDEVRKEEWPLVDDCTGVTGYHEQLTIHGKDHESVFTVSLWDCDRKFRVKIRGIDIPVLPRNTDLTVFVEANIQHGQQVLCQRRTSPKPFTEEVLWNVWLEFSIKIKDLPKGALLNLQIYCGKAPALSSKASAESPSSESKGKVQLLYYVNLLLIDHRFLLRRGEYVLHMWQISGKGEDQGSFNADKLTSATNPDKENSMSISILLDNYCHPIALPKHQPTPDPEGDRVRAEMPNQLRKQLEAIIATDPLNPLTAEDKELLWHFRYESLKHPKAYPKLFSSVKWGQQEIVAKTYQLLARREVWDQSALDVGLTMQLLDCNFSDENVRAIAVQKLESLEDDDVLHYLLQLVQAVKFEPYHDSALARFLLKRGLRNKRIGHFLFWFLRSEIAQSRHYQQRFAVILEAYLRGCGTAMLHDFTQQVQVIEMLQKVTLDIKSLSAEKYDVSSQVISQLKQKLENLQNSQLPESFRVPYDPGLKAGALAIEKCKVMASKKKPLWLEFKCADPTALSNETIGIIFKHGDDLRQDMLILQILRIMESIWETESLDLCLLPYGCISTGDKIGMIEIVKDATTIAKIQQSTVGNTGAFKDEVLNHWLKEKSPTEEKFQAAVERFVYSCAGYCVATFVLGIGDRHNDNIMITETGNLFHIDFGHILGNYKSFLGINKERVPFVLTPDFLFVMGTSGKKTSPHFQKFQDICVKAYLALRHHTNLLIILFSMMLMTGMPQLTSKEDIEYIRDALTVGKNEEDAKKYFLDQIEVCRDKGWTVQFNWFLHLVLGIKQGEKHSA
# Chain of Phosphatidylinositol 4,5-bisphosphate 3-kinase catalytic subunit beta isoform (P42338 whole entry, canonical isoform): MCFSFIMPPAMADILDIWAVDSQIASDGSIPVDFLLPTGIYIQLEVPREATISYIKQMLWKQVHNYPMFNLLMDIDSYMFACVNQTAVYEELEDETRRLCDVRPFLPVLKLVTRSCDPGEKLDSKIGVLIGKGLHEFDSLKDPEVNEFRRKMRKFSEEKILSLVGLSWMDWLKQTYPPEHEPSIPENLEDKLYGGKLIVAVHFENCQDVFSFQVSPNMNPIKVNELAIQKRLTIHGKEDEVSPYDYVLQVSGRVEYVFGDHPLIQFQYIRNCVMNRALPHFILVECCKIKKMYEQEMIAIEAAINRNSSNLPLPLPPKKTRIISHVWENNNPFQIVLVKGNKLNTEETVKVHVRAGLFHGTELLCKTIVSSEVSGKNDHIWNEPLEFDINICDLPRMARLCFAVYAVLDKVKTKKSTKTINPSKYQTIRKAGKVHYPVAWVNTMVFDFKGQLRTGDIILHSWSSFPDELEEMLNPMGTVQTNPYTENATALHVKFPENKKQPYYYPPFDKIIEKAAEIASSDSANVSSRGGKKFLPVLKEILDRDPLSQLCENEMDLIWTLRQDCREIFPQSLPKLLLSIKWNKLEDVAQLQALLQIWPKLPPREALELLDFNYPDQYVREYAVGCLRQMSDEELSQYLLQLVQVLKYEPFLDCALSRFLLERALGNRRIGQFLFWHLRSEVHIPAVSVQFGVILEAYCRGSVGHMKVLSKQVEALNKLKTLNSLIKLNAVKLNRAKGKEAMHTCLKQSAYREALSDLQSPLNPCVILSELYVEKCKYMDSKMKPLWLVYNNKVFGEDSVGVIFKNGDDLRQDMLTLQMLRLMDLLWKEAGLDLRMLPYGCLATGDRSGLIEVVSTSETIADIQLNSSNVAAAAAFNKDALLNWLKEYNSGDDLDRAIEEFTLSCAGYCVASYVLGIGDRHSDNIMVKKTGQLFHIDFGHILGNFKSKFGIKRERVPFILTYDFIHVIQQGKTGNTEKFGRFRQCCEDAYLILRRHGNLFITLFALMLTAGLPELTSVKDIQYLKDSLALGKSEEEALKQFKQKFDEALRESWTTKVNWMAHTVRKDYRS
IC50 [1],IC50 [2],IC50 [3],IC50 [4],IC50 [6],half-life [7],CLint scaled at 0.2 µM [8],Compound,IC50 [5]
0.22 µM,–,–,–,–,–,–,COc1ncc(N2CCc3ncnc(Nc4cccc(C)c4)c3C2)cc1C,–
0.047 µM,–,–,–,–,–,–,COc1ncc(N2CCc3ncnc(Nc4cccc(C(=O)N5CCOCC5)c4)c3C2)cc1C,–
0.18 µM,2.6 µM,–,–,–,–,–,COc1ncc(N2CCc3ncnc(-c4cnn(C5CCOCC5)c4)c3C2)cc1C,–
0.011 µM,5.8 µM,5.4 µM,> 10 µM,–,–,–,COc1ncc(N2CCc3ncnc(-c4ccnc(NC5CCOCC5)c4)c3C2)cc1C,0.0071 µM
–,–,–,–,0.153 µM,40.2 min,–,COc1ncc(N2CCc3ncnc(O[C@H]4CCN(C(=O)C5CCOCC5)C4)c3C2)cc1C,0.024 µM
0.028 µM,7.5 µM,8.9 µM,–,–,–,–,COc1ncc(N2CCc3ncnc(-c4ccnc(NCC5CCOCC5)c4)c3C2)cc1C,0.017 µM
0.0096 µM,1.4 µM,–,–,–,–,> 60 L/h/kg,COc1ncc(N2CCc3ncnc(-c4ccnc(NC5CCN(S(C)(=O)=O)CC5)c4)c3C2)cc1C,0.012 µM
0.11 µM,4.9 µM,–,–,–,–,–,COc1ncc(N2CCc3ncnc(-c4cnn(CC5CCOCC5)c4)c3C2)cc1C,–
0.0085 µM,4.6 µM,> 10 µM,> 10 µM,–,–,9.6 L/h/kg,CCN1CCC(Nc2cc(-c3ncnc4c3CN(c3cnc(OC)c(C)c3)CC4)ccn2)CC1,0.0048 µM
0.0092 µM,9.8 µM,> 10 µM,> 10 µM,–,–,34.8 L/h/kg,COCC(=O)N1CCC(Nc2cc(-c3ncnc4c3CN(c3cnc(OC)c(C)c3)CC4)ccn2)CC1,0.0079 µM
0.042 µM,6.1 µM,–,–,–,–,–,COc1ncc(N2CCc3ncnc(-c4ccc(NCC5CCOCC5)nc4)c3C2)cc1C,–
